Reference: US20240254115A1 (ACONDICIONAMIENTO TARRASENSE, priority 2021, published 2024)

Tests used:
human σ2/TMEM97 receptor = biological target: T1, human σ2/TMEM97 receptor (Homo sapiens, UniProt Q5BJF2); test: Binding assay to human σ2/TMEM97 receptor; conditions: transfected HEK-293 membranes, 10 nM [3H]-DTG, 25° C. 120 minutes; + may also stand for 1-50% inhibition at 1 or 10 μM; read-out: Binding σ-2 Ki
T1 construct: expressed in transfected cells; host or cells: HEK-293
Method: Binding Assay to Human σ2/TMEM97 Receptor
Transfected HEK-293 membranes (15 μg) were incubated with 10 nM [^3H]-1,3-Di-o-tolylguanidine (DTG) in assay buffer containing Tris-HCl 50 mM at pH 8.0. NSB (non-specific binding) was measured by adding 10 μM haloperidol. The binding of the test compound was measured at either one concentration (% inhibition at 1 or 10 μM) or five different concentrations to determine affinity values (Ki). Plates were incubated at 25° C. for 120 minutes. After the incubation period, the reaction mix was transferred to MultiScreen HTS, FC plates (Millipore), filtered and washed 3 times with ice-cold 10 mM Tris-HCL (pH 8.0). Filters were dried and counted at approximately 40% efficiency in a MicroBeta scintillation counter (Perkin-Elmer) using EcoScint liquid scintillation cocktail.

human σ1 receptor = biological target: T2, human σ1 receptor (Homo sapiens, UniProt Q99720); test: Human σ1 receptor radioligand assay; conditions: transfected HEK-293 membranes, 5 nM [3H](+)-pentazocine, 37° C. 120 minutes; + may also stand for 1-50% inhibition at 1 or 10 μM; read-out: Binding σ-1 Ki
T2 construct: expressed in transfected cells; host or cells: HEK-293
Method: Human σ1 Receptor Radioligand Assay
Transfected HEK-293 membranes (7 μg) were incubated with 5 nM of [^3H](+)-pentazocine in assay buffer containing Tris-HCl 50 mM at pH 8. NBS (non-specific binding) was measured by adding 10 μM haloperidol. The binding of the test compound was measured at either one concentration (% inhibition at 1 or 10 μM) or five different concentrations to determine affinity values (Ki). Plates were incubated at 37° C. for 120 minutes. After the incubation period, the reaction mix was then transferred to MultiScreen HTS, FC plates (Millipore), filtered and plates were washed 3 times with ice-cold 10 mM Tris-HCL (pH7.4). Filters were dried and counted at approximately 40% efficiency in a MicroBeta scintillation counter (Perkin-Elmer) using EcoScint liquid scintillation cocktail.

T1 sequence (Q5BJF2 whole entry): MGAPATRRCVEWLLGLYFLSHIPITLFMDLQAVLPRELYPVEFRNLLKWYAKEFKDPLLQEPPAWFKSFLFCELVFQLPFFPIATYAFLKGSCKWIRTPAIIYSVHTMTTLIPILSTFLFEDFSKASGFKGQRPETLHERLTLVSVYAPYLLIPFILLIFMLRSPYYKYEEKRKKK
T2 sequence (Q99720 whole entry): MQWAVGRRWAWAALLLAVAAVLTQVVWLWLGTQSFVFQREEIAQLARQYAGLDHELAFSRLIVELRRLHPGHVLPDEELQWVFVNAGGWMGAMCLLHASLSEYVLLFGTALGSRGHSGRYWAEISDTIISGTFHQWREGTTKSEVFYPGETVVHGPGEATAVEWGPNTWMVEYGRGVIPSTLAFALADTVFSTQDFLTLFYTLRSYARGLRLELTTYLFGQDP

Ki (human σ2/TMEM97 receptor) [µM]	Ki (human σ1 receptor) [µM]	Structure (SMILES)
> 1	< 0.1	O=S(=O)(N[C@@H]1CCN(Cc2cccc(F)c2)C1)c1ccc(N2CCOCC2)nc1 [Example 38, (R)-N-(1-(3-Fluorobenzyl)pyrrolidin-3-yl)-6-morpholinopyridine-3-sulfonamide]
< 0.1	> 1	O=C1OCCN1c1ccc(S(=O)(=O)N2CCC3(CCN(Cc4cc(F)ccc4F)CC3)CC2)cn1 [Example 156, 3-(5-((9-(2,5-Difluorobenzyl)-3,9-diazaspiro[5.5]undecan-yl)sulfonyl)pyridin-2-yl)oxazolidin-3-2-one]
< 0.1	< 0.1	CC(C)(C)CCN1CCC2(CC1)CCN(S(=O)(=O)c1ccc(-c3ccncc3)nc1)C2 [Example 114, 2-([2,4′-Bipyridin]-5-ylsulfonyl)-8-(3,3-dimethylbutyl)-2,8-diazaspiro[4.5]decane]
< 0.1	0.1 to 0.5	CC(C)(C)CCN1CCC2(CC1)CCN(S(=O)(=O)c1ccc(N3CCS(=O)(=O)CC3)nc1)CC2 [Example 69, 4-(5-((9-(3,3-Dimethylbutyl)-3,9-diazaspiro[5.5]undecan-3-yl)sulfonyl)pyridin-2-yl)thiomorpholine 1,1-dioxide]
< 0.1	0.1 to 0.5	CC(=O)N(C)c1ccc(S(=O)(=O)N2CCCC3(CCN(CCC(C)(C)C)CC3)C2)cn1 [Example 102, N-(5-((9-(3,3-Dimethylbutyl)-2,9-diazaspiro[5.5]undecan-2-yl)sulfonyl)pyridin-2-yl)-N-methylacetamide]
< 0.1	< 0.1	CC(C)(C)CCN1CCC2(CC1)CCN(S(=O)(=O)c1ccc(C(F)(F)F)nc1)CC2 [Example 66, 3-(3,3-Dimethylbutyl)-9-((6-(trifluoromethyl)pyridin-3-yl)sulfonyl)-3,9-diazaspiro[5.5]undecane]
< 0.1	0.1 to 0.5	CC(C)(C)CN1CCC2(CC1)CCN(S(=O)(=O)c1ccc(N3CCC(F)(F)CC3)nc1)CC2 [Example 99, 3-((6-(4,4-Difluoropiperidin-1-yl)pyridin-3-yl)sulfonyl)-9-neopentyl-3,9-diazaspiro[5.5]undecane]
< 0.1	0.1 to 0.5	CC(C)(C)CCN1CCC2(CC1)CCN(S(=O)(=O)c1ccc(N3CCOCC3)nc1)CC2 [Example 29, 4-(5-((9-(3,3-Dimethylbutyl)-3,9-diazaspiro[5.5]undecan-3-yl)sulfonyl)pyridin-2-yl)morpholine]
> 1	< 0.1	O=S(=O)(NC1CN(Cc2ccccc2)C1)c1ccc(N2CCOCC2)nc1 [Example 43, N-(1-Benzylazetidin-3-yl)-6-morpholinopyridine-3-sulfonamide]
0.1 to 0.5	> 1	CN(Cc1ccccc1)C1CCN(S(=O)(=O)c2ccc(N3CCOCC3)nc2)CC1 [Example 16, N-Benzyl-N-methyl-1-((6-morpholinopyridin-3-yl)sulfonyl)piperidin-4-amine]
< 0.1	0.1 to 0.5	CC(C)(C)CCN1CCC2(CC1)CCN(S(=O)(=O)c1ccc(N3CCCCC3=O)nc1)CC2 [Example 132, 1-(5-((9-(3,3-Dimethylbutyl)-3,9-diazaspiro[5.5]undecan-3-yl)sulfonyl)pyridin-2-yl)piperidin-2-one]
> 1	> 1	N#Cc1cc(CN2CCCC3(CCN(S(=O)(=O)c4ccc(N5CCOC5=O)nc4)CC3)C2)ccc1F [Example 152, 2-Fluoro-5-((9-((6-(2-oxooxazolidin-3-yl)pyridin-3-yl)sulfonyl)-2,9-diazaspiro[5.5]undecan-2-yl)methyl)benzonitrile]
< 0.1	0.1 to 0.5	CC(C)(C)CCN1CCC2(CC1)CCN(S(=O)(=O)c1ccc(C3CCOCC3)nc1)CC2 [Example 117, 3-(3,3-Dimethylbutyl)-9-((6-(tetrahydro-2H-pyran-4-yl)pyridin-3-yl)sulfonyl)-3,9-diazaspiro[5.5]undecane]
0.1 to 0.5	0.5 to 1	O=C1OCCN1c1ccc(S(=O)(=O)N2CCC3(CCCN(Cc4ccccc4F)C3)CC2)cn1 [Example 145, 3-(5-((2-(2-Fluorobenzyl)-2,9-diazaspiro[5.5]undecan-9-yl)sulfonyl)pyridin-2-yl)oxazolidin-2-one]
< 0.1	< 0.1	Cc1ccc(S(=O)(=O)N2CCC3(CCN(CCC(C)(C)C)CC3)CC2)cn1 [Example 110, 3-(3,3-Dimethylbutyl)-9-((6-methylpyridin-3-yl)sulfonyl)-3,9-diazaspiro[5.5]undecane]
0.1 to 0.5	> 1	O=S(=O)(c1ccc(N2CCOCC2)nc1)N1CCC[C@@H](CNCc2ccc(O)nc2)C1 [Example 65, (S)-5-((((1-((6-Morpholinopyridin-3-yl)sulfonyl)piperidin-3-yl)methyl)amino)methyl)pyridin-2-ol]
< 0.1	0.1 to 0.5	CC(C)(C)CCN1CCC2(CCCN(S(=O)(=O)c3ccc(N4CCOCC4=O)nc3)C2)CC1 [Example 120, 4-(5-((9-(3,3-Dimethylbutyl)-2,9-diazaspiro[5.5]undecan-2-yl)sulfonyl)pyridin-2-yl)morpholin-3-one]
< 0.1	> 1	N#Cc1cccc(CN2CCC3(CC2)CCN(S(=O)(=O)c2ccc(N4CCOCC4)nc2)CC3)c1 [Example 48, 3-((9-((6-Morpholinopyridin-3-yl)sulfonyl)-3,9-diazaspiro[5.5]undecan-3-yl)methyl)benzonitrile]
< 0.1	> 1	O=C1OCCN1c1ccc(S(=O)(=O)N2CCC3(CCN(Cc4cc(F)ccc4F)CC3)C2)cn1 [Example 162, 3-(5-((8-(2,5-Difluorobenzyl)-2,8-diazaspiro[4.5]decan-2-yl)sulfonyl)pyridin-2-yl)oxazolidin-2-one]
< 0.1	> 1	CN(Cc1ccc(F)c(C#N)c1)[C@H]1CC[C@H](NS(=O)(=O)c2ccc(N3CCOCC3)nc2)CC1 [Example 58, N-((1r,4r)-4-((3-Cyano-4-Fluorobenzyl)(methyl)amino)cyclo-hexyl)-6-morpholinopyridine-3-sulfonamide]
0.1 to 0.5	> 1	CN(Cc1ccccc1)[C@H]1CC[C@H](NS(=O)(=O)c2ccc(N3CCOC3=O)nc2)CC1 [Example 167, N-((1 r,4r)-4-(Benzyl(methyl)amino)cyclohexyl)-6-(2-oxooxazolidin-3-yl)pyridine-3-sulfonamide]
< 0.1	< 0.1	CC(C)(C)CCN1CCC2(CC1)CCN(S(=O)(=O)c1ccc(N3CCC4(CCCO4)CC3)nc1)CC2 [Example 71, 8-(5-((9-(3,3-Dimethylbutyl)-3,9-diazaspiro[5.5]undecan-3-yl)sulfonyl)pyridin-2-yl)-1-oxa-8-azaspiro[4.5]decane]
< 0.1	0.1 to 0.5	CC(C)(C)CCN1CCC2(CC1)CCN(S(=O)(=O)c1cnc(N3CCCC3=O)c(F)c1)CC2 [Example 141, 1-(5-((9-(3,3-Dimethylbutyl)-3,9-diazaspiro[5.5]undecan-3-yl)sulfonyl)-3-fluoropyridin-2-yl)pyrrolidin-2-one]

Structure (SMILES)	Ki (human σ2/TMEM97 receptor) [µM]	Ki (human σ1 receptor) [µM]
O=S(=O)(N[C@@H]1CCN(Cc2ccccc2)C1)c1ccc(N2[C@@H]3CC[C@H]2COC3)nc1 [Example 27, N-((R)-1-Benzylpyrrolidin-3-yl)-6-((1R,5S)-3-oxa-8-azabicyclo [3.2.1]octan-8-yl)pyridine-3-sulfonamide]	> 1	
